US20240360165A1, “INHIBITORS OF CYCLIN DEPENDENT KINASE 7 (CDK7)” (Syros Pharmaceuticals, Inc., priority 2016, published 2024)
Where two headings read alike, the source gives them in different places.

Key:
[1] = biological target: CDK7/Cyclin H/MAT1 complex (Homo sapiens, UniProt P50613); assay: CDK7 inhibition assay (Caliper/LabChip EZ Reader kinase assay); format: biochemical; settings: Table 1; CDK7/Cyclin H/MAT1 6 nM, ATP 2 mM, 35 min at 27° C.
In short: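 A Perkin Elmer Caliper/LabChip EZ Reader (Waltham, MA) platform served as the basis for this CDK7 kinase inhibition assay. The work was carried out by Biortus Biosciences, located in Jiangyin, Jiangsu Province, P.R. of China. Each CDK studied had its own kinase assay, and compounds were evaluated for their ability to block CDK7 activity.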

HCC70 cells = assay: Inhibition of proliferation of HCC70 cells (CyQUANT Direct Cell Proliferation Assay, 72 hour); format: cell-based, human; settings: read-out: Inhibition of Proliferation of HCC70 Cells (calculated IC50)
Procedure: HCC70 cells are a cell line derived from human triple negative breast cancer. […] Known CDK inhibitors dinaciclib or N-((1S,3R)-3-((5-chloro-4-(1H-indol-3-yl) pyrimidin-2-yl)amino)cyclohexyl)-5-((E)-4-(dimethylamino)but-2-enamido)picolinamide and triptolide were used as positive controls. […] The cells were cultured at 37° C. in a humidified chamber in the presence of 5% CO2. Proliferation assays were conducted over a 72 hour time period. CyQUANT® Direct Cell Proliferation Assay (Life Technologies, Chicago, IL USA) was used to assess the anti-proliferative effects of the compounds following manufacturer's directions and utilizing the reagents supplied with the CyQUANT® Direct Cell kit.

CDK9/Cyclin T1 complex = CDK9/Cyclin T1 complex (Homo sapiens, UniProt P50750); assay: CDK9 inhibition assay (Caliper/LabChip EZ Reader kinase assay); format: biochemical; settings: Table 1; CDK9/Cyclin T1 8 nM, ATP 2 mM, 15 min at 27° C.
In short: (§1)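 Activity read as fluorescent peptide conversion on a LabChip EZ Reader. For CDK2/Cyclin E1 (0.5 nM), substrate was 5-FAM-CDK7tide (2 μM) with 2 mM MgCl2; for CDK9/Cyclin T1 (8 nM), 5-FAM-CDK9tide (2 μM) with 10 mM MgCl2.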

CDK2/Cyclin E1 complex = CDK2/Cyclin E1 complex (Homo sapiens, UniProt P24941); assay: CDK2 inhibition assay (Caliper/LabChip EZ Reader kinase assay); format: biochemical; settings: Table 1; CDK2/Cyclin E1 0.5 nM, ATP 2 mM, 35 min at 27° C.
In short: as §1

[2] = biological target: T1, CDK12 (aa686-1082)/Cyclin K complex (Homo sapiens, UniProt Q9NYV4); assay: CDK12 inhibition assay (Caliper/LabChip EZ Reader kinase assay); format: biochemical; settings: Table 1; CDK12 (aa686-1082)/Cyclin K 50 nM, ATP 2 mM, 3 hr at 27° C.
T1 construct: CDK12 (aa686-1082)/Cyclin K complex
T1 sequence (Q9NYV4 686-1082, species assumed): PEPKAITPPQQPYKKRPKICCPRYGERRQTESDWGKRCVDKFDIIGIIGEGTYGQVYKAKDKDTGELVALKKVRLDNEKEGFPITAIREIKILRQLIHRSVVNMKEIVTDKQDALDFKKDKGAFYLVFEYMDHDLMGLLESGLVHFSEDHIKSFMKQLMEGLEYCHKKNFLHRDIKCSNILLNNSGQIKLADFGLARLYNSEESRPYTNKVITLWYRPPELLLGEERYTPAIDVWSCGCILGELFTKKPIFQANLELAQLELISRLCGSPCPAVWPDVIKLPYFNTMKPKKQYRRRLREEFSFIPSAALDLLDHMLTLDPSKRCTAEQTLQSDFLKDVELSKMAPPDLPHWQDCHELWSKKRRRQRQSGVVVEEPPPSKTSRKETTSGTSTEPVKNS
T1 sequence (O75909 whole entry partner, species assumed, the tested form may be a part): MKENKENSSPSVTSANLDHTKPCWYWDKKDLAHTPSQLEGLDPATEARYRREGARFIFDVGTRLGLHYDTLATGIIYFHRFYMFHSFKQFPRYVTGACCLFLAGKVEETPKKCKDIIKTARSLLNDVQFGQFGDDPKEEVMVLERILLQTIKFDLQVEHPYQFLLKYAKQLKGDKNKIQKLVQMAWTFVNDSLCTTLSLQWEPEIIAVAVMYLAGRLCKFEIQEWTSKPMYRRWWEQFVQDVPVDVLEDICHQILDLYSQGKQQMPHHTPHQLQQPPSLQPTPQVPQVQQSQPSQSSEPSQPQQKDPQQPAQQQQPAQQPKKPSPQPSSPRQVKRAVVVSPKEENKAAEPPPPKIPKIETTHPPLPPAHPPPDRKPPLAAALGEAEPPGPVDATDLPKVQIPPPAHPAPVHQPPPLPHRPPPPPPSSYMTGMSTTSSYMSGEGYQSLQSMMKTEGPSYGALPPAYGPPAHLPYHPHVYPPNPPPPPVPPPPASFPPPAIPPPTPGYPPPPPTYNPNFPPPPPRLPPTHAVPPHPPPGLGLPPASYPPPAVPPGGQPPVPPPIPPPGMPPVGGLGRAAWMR

CDK9/Cyclin T1 complex, sequence (P50750 whole entry, species assumed): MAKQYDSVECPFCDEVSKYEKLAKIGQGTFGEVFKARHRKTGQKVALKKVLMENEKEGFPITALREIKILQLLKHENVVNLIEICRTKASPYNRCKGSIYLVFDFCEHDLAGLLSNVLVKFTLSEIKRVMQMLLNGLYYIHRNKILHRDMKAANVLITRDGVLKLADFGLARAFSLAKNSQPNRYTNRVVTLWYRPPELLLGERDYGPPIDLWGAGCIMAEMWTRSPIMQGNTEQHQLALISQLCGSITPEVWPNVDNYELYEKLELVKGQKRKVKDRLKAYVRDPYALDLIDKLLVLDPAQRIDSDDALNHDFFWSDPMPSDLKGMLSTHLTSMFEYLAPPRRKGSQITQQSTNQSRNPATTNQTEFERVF
CDK9/Cyclin T1 complex, sequence (O60563 whole entry partner, species assumed): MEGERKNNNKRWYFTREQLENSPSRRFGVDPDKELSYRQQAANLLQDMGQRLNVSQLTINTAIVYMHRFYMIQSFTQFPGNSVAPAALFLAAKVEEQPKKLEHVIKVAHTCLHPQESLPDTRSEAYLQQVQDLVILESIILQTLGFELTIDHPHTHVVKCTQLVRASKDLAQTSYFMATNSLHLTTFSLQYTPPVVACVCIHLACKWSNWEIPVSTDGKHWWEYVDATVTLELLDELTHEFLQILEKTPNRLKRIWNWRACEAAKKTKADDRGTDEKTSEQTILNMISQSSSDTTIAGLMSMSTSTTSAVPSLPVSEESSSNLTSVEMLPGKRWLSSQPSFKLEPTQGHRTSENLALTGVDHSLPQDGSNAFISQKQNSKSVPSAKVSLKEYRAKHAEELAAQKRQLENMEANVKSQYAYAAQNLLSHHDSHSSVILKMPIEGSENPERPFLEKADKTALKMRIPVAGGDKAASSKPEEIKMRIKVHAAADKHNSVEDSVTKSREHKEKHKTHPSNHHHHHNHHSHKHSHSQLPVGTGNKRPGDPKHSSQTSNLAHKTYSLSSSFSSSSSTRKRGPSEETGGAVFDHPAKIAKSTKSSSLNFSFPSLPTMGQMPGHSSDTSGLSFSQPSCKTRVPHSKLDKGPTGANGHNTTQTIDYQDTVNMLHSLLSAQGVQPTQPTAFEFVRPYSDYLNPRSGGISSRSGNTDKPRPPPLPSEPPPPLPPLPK
CDK7/Cyclin H/MAT1 complex, sequence (P50613 whole entry, species assumed): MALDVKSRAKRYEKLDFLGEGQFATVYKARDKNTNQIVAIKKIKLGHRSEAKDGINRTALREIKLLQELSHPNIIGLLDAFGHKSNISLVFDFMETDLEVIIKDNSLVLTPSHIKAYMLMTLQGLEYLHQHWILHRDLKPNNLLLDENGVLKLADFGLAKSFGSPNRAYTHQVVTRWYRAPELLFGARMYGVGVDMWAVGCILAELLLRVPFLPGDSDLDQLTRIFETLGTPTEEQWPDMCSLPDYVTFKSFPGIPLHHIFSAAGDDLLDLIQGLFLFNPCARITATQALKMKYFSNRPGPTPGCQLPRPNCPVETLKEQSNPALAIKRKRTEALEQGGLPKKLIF
CDK7/Cyclin H/MAT1 complex, sequence (P51946 whole entry partner, species assumed): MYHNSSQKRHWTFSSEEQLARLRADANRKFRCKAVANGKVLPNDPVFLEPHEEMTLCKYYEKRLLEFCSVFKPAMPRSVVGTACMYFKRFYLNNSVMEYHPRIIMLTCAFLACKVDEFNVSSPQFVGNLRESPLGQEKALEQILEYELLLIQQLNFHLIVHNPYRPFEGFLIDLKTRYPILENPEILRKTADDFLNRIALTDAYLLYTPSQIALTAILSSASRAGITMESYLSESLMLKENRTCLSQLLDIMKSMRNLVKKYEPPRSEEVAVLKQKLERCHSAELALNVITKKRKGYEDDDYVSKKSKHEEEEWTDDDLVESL
CDK7/Cyclin H/MAT1 complex, sequence (P51948 whole entry partner, species assumed): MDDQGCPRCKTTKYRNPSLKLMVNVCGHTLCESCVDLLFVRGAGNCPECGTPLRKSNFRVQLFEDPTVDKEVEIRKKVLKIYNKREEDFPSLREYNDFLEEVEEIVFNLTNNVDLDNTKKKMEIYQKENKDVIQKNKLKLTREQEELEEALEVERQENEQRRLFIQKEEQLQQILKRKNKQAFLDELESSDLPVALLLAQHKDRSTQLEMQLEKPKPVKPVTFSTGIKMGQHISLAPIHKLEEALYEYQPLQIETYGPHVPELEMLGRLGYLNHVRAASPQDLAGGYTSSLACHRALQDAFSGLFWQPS

| IC50 [1] | IC50 (CDK9/Cyclin T1 complex) | IC50 (CDK2/Cyclin E1 complex) | IC50 [2] | SMILES | IC50 (HCC70 cells; Homo sapiens, HCC70, 72 h) | IC50 (HCC70 cells) |
| --- | --- | --- | --- | --- | --- | --- |
| < 0.02 µM | 0.2 to 5 µM | 0.2 to 5 µM | 0.2 to 5 µM | Cc1c(-c2ccc3c(-c4nc(N[C@H]5CCCNC5)ncc4C(F)(F)F)c[nH]c3c2)c[nH]c(=O)c1C#N [Compound 311, 4-methyl-2-oxo-5-[3-[2-[[(3S)-3-piperidyl]amino]-5-(trifluoromethyl)pyrimidin-4-yl]-1H-indol-6-yl]-1H-pyridine-3-carbonitrile] | 1 to 5 µM | – |
| < 0.02 µM | 0.2 to 5 µM | 0.2 to 5 µM | 0.2 to 5 µM | CC1(C)CNC[C@@H](Nc2ncc(Cl)c(-c3c[nH]c4c(S(C)(=O)=O)c(C#N)ccc34)n2)C1 [Compound 382, 3-[5-chloro-2-[[(3S)-5,5-dimethyl-3-piperidyl]amino]pyrimidin-4-yl]-7-methylsulfonyl-1H-indole-6-carbonitrile] | < 0.1 µM | – |
| < 0.02 µM | 0.2 to 5 µM | 0.2 to 5 µM | 0.2 to 5 µM | O=C(c1ccc2c(-c3nc(N[C@H]4CCCNC4)ncc3C(F)(F)F)c[nH]c2c1)N1C[C@H](O)C(F)(F)C1 [Compound 308, [(4S)-3,3-difluoro-4-hydroxy-pyrrolidin-1-yl]-[3-[2-[[(3S)-3-piperidyl]amino]-5-(trifluoromethyl)pyrimidin-4-yl]-1H-indol-6-yl]methanone] | 0.1 to 1 µM | – |
| < 0.02 µM | 0.2 to 5 µM | 0.2 to 5 µM | 0.2 to 5 µM | CCc1cnc(N[C@H]2CCCNC2)nc1-c1c[nH]c2c(S(C)(=O)=O)cccc12 [Compound 269, (S)-5-ethyl-4-(7-(methylsulfonyl)-1H-indol-3-yl)-N-(piperidin-3-yl)pyrimidin-2-amine] | 0.1 to 1 µM | – |
| 0.02 to 0.2 µM | > 5 µM | > 5 µM | > 5 µM | COCn1cc(-c2nc(N[C@H]3CCCNC3)ncc2C(F)(F)F)c2cccc(C#N)c21 [Compound 295] | – | 1 to 5 µM |
| > 5 µM | > 5 µM | > 5 µM | > 5 µM | CNC(=O)c1cccc2c(-c3nc(N[C@H]4CCCNC4)ncc3C(F)(F)F)cn(COC)c12 [Compound 304] | – | 1 to 5 µM |
| < 0.02 µM | 0.2 to 5 µM | 0.2 to 5 µM | 0.2 to 5 µM | O=C(c1ccc2c(-c3nc(N[C@H]4CCCNC4)ncc3C(F)(F)F)c[nH]c2c1)N1CC[C@@](O)(C(F)(F)F)C1 (single isomer, unassigned) [Compound 300] | 0.1 to 1 µM | – |
| 0.2 to 5 µM | > 5 µM | > 5 µM | > 5 µM | Fc1cccc(-c2ccc3c(-c4nc(N[C@H]5CCCNC5)ncc4C(F)(F)F)c[nH]c3c2)c1 [Compound 345] | 1 to 5 µM | – |
| < 0.02 µM | 0.2 to 5 µM | 0.2 to 5 µM | 0.2 to 5 µM | FC(F)(F)c1cnc(N[C@H]2CCCNC2)nc1-c1c[nH]c2cc(-c3ccc4[nH]cnc4c3)ccc12 [Compound 313] | – | 0.1 to 1 µM |
| 0.02 to 0.2 µM | > 5 µM | > 5 µM | > 5 µM | N#Cc1ccc2c(-c3nc(N[C@H]4CCC5(CCC5)NC4)ncc3C(F)(F)F)c[nH]c2c1 (single isomer, unassigned) [Compound 378] | 1 to 5 µM | – |
| < 0.02 µM | 0.2 to 5 µM | 0.2 to 5 µM | 0.2 to 5 µM | CNC(=O)c1ccc2c(-c3nc(N[C@H]4CCCNC4)ncc3C(F)(F)F)c[nH]c2n1 [Compound 297] | < 0.1 µM | – |
| < 0.02 µM | 0.2 to 5 µM | 0.2 to 5 µM | 0.2 to 5 µM | COC1CCN(C(=O)c2ccc3c(-c4nc(N[C@H]5CCCNC5)ncc4C(F)(F)F)c[nH]c3c2)C1 (single isomer, unassigned) [Compound 281] | 0.1 to 1 µM | – |
| < 0.02 µM | 0.2 to 5 µM | 0.2 to 5 µM | 0.2 to 5 µM | FC(F)(F)c1cnc(N[C@H]2CCCNC2)nc1-c1c[nH]c2cc(-c3cnccn3)ccc12 [Compound 328] | – | < 0.1 µM |
| 0.02 to 0.2 µM | 0.2 to 5 µM | 0.2 to 5 µM | 0.2 to 5 µM | FC(F)(F)c1cnc(N[C@H]2CCCNC2)nc1-c1c[nH]c2cc(-c3ccc4ncsc4c3)ccc12 [Compound 343] | – | 0.1 to 1 µM |
| 0.02 to 0.2 µM | 0.2 to 5 µM | 0.2 to 5 µM | 0.2 to 5 µM | O=C1CCN(C(=O)c2ccc3c(-c4nc(N[C@H]5CCCNC5)ncc4C(F)(F)F)c[nH]c3c2)C1 [Compound 302, 1-[3-[2-[[(3S)-3-piperidyl]amino]-5-(trifluoromethyl)pyrimidin-4-yl]-1H-indole-6-carbonyl] pyrrolidin-3-one] | 0.1 to 1 µM | – |
| 0.02 to 0.2 µM | > 5 µM | > 5 µM | > 5 µM | CCc1cnc(N[C@H]2CCCNC2)nc1-c1c[nH]c2c(S(=O)(=O)C(C)C)cccc12 [Compound 356] | – | 0.1 to 1 µM |
| 0.02 to 0.2 µM | > 5 µM | > 5 µM | 0.2 to 5 µM | CC1(C)CC[C@H](Nc2ncc(C(F)(F)F)c(-c3c[nH]c4cc(C#N)ccc34)n2)CN1 [Compound 350, (S)-3-(2-((6,6-dimethylpiperidin-3-yl)amino)-5-(trifluoromethyl)pyrimidin-4-yl)-1H-indole-6-carbonitrile] | 0.1 to 1 µM | – |
| 0.02 to 0.2 µM | > 5 µM | > 5 µM | > 5 µM | CC1CCNCC1Nc1ncc(C(F)(F)F)c(-c2c[nH]c3ccccc23)n1 (single isomer, unassigned) [Compound 373] | – | 1 to 5 µM |
| < 0.02 µM | > 5 µM | 0.2 to 5 µM | 0.2 to 5 µM | OCc1cccc(-c2ccc3c(-c4nc(N[C@H]5CCCNC5)ncc4C(F)(F)F)c[nH]c3c2)n1 [Compound 316] | – | 0.1 to 1 µM |
| < 0.02 µM | 0.2 to 5 µM | > 5 µM | 0.2 to 5 µM | N#Cc1ccc2c(-c3nc(N[C@@H]4CCC5(CCC5)NC4)ncc3C(F)(F)F)c[nH]c2c1 (single isomer, unassigned) [Compound 377] | 0.1 to 1 µM | – |
| > 5 µM | > 5 µM | > 5 µM | > 5 µM | CP(C)(=O)c1cccc2c(-c3nc(N[C@H]4CCCNC4)ncc3C(F)(F)F)c[nH]c12 [Compound 352, (S)-dimethyl(3-(2-(piperidin-3-ylamino)-5-(trifluoromethyl)pyrimidin-4-yl)-1H-indol-7-yl)phosphine oxide] | 1 to 5 µM | – |
| < 0.02 µM | > 5 µM | 0.2 to 5 µM | 0.2 to 5 µM | CC1(O)CCN(C(=O)c2ccc3c(-c4nc(N[C@H]5CCCNC5)ncc4C(F)(F)F)c[nH]c3c2)CC1 [Compound 282, (4-hydroxy-4-methyl-1-piperidyl)-[3-[2-[[(3S)-3-piperidyl]amino]-5-(trifluoromethyl)pyrimidin-4-yl]-1H-indol-6-yl] methanone] | 0.1 to 1 µM | – |
| < 0.02 µM | 0.2 to 5 µM | 0.2 to 5 µM | 0.2 to 5 µM | O=C(c1ccc2c(-c3nc(N[C@H]4CCCNC4)ncc3C(F)(F)F)c[nH]c2c1)N1C[C@@H](O)C(F)(F)C1 [Compound 349, [(4R)-3,3-difluoro-4-hydroxy-pyrrolidin-1-yl]-[3-[2-[[(3S)-3-piperidyl]amino]-5-(trifluoromethyl)pyrimidin-4-yl]-1H-indol-6-yl] methanone] | 0.1 to 1 µM | – |
| < 0.02 µM | > 5 µM | 0.2 to 5 µM | 0.2 to 5 µM | Oc1ncccc1-c1ccc2c(-c3nc(N[C@H]4CCCNC4)ncc3C(F)(F)F)c[nH]c2c1 [Compound 310, 3-[3-[2-[[(3S)-3-piperidyl]amino]-5-(trifluoromethyl)pyrimidin-4-yl]-1H-indol-6-yl]pyridin-2-ol] | 0.1 to 1 µM | – |
| 0.02 to 0.2 µM | > 5 µM | > 5 µM | > 5 µM | Cn1cc(-c2nc(N[C@H]3CCCNC3)ncc2C(F)(F)F)c2cccc(S(C)(=O)=O)c21 [Compound 296] | – | 1 to 5 µM |
| 0.02 to 0.2 µM | – | – | 0.2 to 5 µM | Cn1ncc2ccc(-c3ccc4c(-c5nc(N[C@H]6CCCNC6)ncc5C(F)(F)F)c[nH]c4c3)cc21 [Compound 337] | – | 0.1 to 1 µM |
| 0.02 to 0.2 µM | – | – | 0.2 to 5 µM | Cn1cc(-c2ccc3c(-c4nc(N[C@H]5CCCNC5)ncc4C(F)(F)F)c[nH]c3c2)c2cnc(C(F)(F)F)cc21 [Compound 320] | 1 to 5 µM | – |
